Target: T1, OlsH (Sinac_1599) (Singulisphaera acidiphila, UniProt L0DAW6)
T1 sequence (L0DAW6 1-526): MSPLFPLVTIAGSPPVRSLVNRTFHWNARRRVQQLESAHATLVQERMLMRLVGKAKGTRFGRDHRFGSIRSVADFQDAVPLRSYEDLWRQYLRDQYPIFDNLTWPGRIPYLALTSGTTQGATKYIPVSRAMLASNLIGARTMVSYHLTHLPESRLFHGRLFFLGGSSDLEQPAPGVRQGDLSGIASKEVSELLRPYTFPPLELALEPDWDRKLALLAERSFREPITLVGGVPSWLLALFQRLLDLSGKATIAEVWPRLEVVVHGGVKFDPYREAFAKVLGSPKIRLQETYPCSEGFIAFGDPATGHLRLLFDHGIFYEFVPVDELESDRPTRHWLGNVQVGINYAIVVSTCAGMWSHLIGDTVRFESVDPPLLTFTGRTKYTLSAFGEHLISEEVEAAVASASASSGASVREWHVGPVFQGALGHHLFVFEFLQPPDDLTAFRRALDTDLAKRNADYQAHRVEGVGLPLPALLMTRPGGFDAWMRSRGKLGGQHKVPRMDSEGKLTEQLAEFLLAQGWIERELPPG
Test: […] N-acyl ornithine formation, TLC / PhosphorImager; empty-vector extract inactive
Type: biochemical
Conditions: ATP, Mg2+, Tris pH 7.9, 30 °C, cell-free E. coli extract

Structure (SMILES)	14C N-acyl ornithine formation, TLC / PhosphorImager; empty-vector extract inact ([14C]-ornithine, fatty acid as Triton X-100 micelles)	14C N-acyl ornithine formation, TLC / PhosphorImager; empty-vector extract inact (palmitic acid, labelled compound)
CCCCCCCCCCCCCCCC(=O)O [palmitic acid]	Strong acyl ornithine signals were detected with the three non-hydroxylated fatty acids	–
NCCC[C@H](N)C(=O)O [ornithine]	–	Adding all compounds resulted in a solid acyl-ornithine signal
